A short description of the data set: Aqueous solubility (statements).

For the substance “Acinetobacter polyelectrolyte exopolysaccharide [APE]”, the “solubility in aqueous solutions versus pH” value is “soluble throughout the pH range”.

For the origin of these results see patent US8609835B2, “Polysaccharide composition and methods of isolation of the emulsion stabilizing cationic polyelectrolytic polysaccharide” (Trustees Of Tufts College, priority 2008, dated 2013).
